In patent publication US8642657B2 (Gruenenthal GmbH, priority 2003, dated 2014):
pKi: −log10 of the molar value.

Columns and labels:
[1] = target: T1, rat VR1 (Rattus norvegicus, UniProt O35433); test: [3H]resiniferatoxin (RTX) competition binding assay, VR1-transfected CHO cells; settings: for Ki: competition with [3H]RTX, rat VR1 in CHO cells, read-out: Ki (nM) Binding Affinity
T1 construct: expressed in transfected cells
Procedure: The pUHG102 VR1 plasmid was transfected into CHO cells containing the pTet Off regulatory plasmid (Clontech). In these cells, expression of the VR1 is repressed in the presence of tetracycline but is induced upon removal of the antibiotic. Stable clones were isolated in culture medium containing puromycin (10 μg/mL) and maintained in HAM F12 medium supplemented with tetracycline (1 μg/mL), 5 μg/ml geniticin, 25 mM HEPES, 10% FBS. Cells utilized for assays were grown in culture medium without antibiotic for 48 h before use. Cells were seeded in T75 cell culture flasks in media without antibiotics and grown to approximately 90% confluence. The flasks were then washed with PBS and harvested in 0.25% trypsin, 1 mM EDTA. The cells were pelleted by gentle centrifugation and stored at −20° C. until assay.
Competition Binding Assay
Binding studies with [^3H]resiniferatoxin (RTX) were carried out as described previously with minor modifications (Szallasi et al., 1992). Binding assay mixtures were set up on ice and contained 50-100 pM [^3H]RTX, various concentrations of competing ligands, 0.25 mg/mL BSA (Cohn fraction V), and about 5×10^5 VR1-transfected cells. The final volume was adjusted to 350 μL with DPBS with Ca^2+ and Mg^2+ and 0.25 mg/mL bovine serum albumin. Non-specific binding was determined in the presence of 100 nM nonradioactive RTX. The binding reaction was initiated by transferring the assay mixtures to a 37° C. water bath and was terminated after a 60 min incubation period by cooling the tubes on ice. To reduce non-specific binding, 200 μg/ml α-glycoprotein was added. Membrane-bound RTX was then separated from the free by pelleting the membranes in a Beckman 12 benchtop centrifuge (15 min, maximal velocity), the tips of the tubes containing the pellets were cut off, and the radioactivity was determined by scintillation counting. Equilibrium binding parameters (Ki and cooperativity) were determined by fitting the Hill equation to the measured values with the aid of the program MicroCal Origin 6.0.
(§1) Initial stocks were dissolved in DMSO. For the binding assays, compounds were diluted in with DPBS with Ca^2+ and Mg^2+ and 0.25 mg/mL bovine serum albumin. For the calcium uptake assays, compounds were diluted in DMEM with 0.25 mg/mL bovine serum albumin.

[2] = target: T1, rat VR1; test: 45Ca2+-uptake assay in CHO/VR1 cells, antagonism of capsaicin-stimulated uptake; format: cell-based; settings: 45Ca2+ uptake stimulated by 50 nM capsaicin
Procedure: as §1
Molecules were characterized to determine whether they were full agonists, partial agonists, or antagonists. For studies of ^45Ca^2+ uptake by CHO/VR1 cells (Tet-off cells), the cells were plated in 24-well plates to yield a cell density 20-40% of that required to produce confluence. The next day the medium was changed to remove the tetracycline and induce VR1 expression. Experiments were performed approximately 36-40 hours after induction. For ^45Ca^2+ uptake assay, cells were incubated for 5 min at 37° C. in a total volume of 400 μL of serum free DMEM (containing 1.8 mM CaCl2) in the presence of 0.25 mg/mL BSA (Sigma), 1 μCi/mL ^45Ca^2+ (5-30 Ci/g from ICN, CA), and increasing concentrations of the compound to be tested. Immediately after the incubation, extracellular ^45Ca^2+ was removed by washing the cells three times with cold DPBS (containing 1.8 mM CaCl2). Then 400 μl RIPA buffer (50 mM Tris pH 7.4; 150 mM NaCl; 1% Triton X-100; 0.1% SDS; 1% sodium deoxycholate) was added to each well in order to lyse the cells. Plates were shaken slowly for 20 min; then 306 μL of cell lysate was transferred from each well into a scintillation vial and radioactivity was determined by scintillation counting. For each data point in each experiment, four wells were assayed. Data from these experiments were analyzed by computer fit to the Hill equation. At least 3 separate experiments were carried out for each compound. In order to determine antagonist activity, studies were performed in exactly the same fashion with the exception that 50 nM capsaicin was added to the assay mixture to stimulate ^45Ca^2+ uptake.

T1 sequence (O35433 whole entry): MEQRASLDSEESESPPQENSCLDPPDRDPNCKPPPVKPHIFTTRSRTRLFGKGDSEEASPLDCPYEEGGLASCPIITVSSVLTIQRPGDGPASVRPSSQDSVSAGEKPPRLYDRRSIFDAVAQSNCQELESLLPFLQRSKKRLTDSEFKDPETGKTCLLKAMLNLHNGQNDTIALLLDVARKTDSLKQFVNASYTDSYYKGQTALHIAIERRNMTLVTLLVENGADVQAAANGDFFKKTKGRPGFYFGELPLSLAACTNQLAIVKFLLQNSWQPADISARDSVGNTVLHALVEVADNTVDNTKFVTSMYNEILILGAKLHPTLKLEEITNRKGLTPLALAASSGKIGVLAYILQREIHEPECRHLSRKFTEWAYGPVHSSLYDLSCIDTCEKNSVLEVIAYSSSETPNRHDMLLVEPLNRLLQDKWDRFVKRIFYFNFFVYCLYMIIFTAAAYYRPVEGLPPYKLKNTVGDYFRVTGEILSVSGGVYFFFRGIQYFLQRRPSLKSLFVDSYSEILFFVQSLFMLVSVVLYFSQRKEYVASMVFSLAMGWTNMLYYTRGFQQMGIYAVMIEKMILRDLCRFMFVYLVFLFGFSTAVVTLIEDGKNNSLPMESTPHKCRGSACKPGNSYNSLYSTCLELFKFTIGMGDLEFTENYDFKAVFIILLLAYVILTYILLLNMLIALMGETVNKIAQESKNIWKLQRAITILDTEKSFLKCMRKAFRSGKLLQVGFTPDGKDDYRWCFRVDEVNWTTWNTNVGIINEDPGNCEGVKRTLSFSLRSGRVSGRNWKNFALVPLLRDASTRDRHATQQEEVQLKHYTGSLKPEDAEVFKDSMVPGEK

For `C[C@@H](C(=O)NC[C@H](COC(=O)C(C)(C)C)Cc1ccccc1)c1ccc(NS(C)(=O)=O)c(F)c1` [6-8, N-[(2R)-2-Benzyl-3-(pivaloyloxy)propyl]-(2R)-2-[3-fluoro-4-(methylsulfonylamino)phenyl]propionamide], the Ki [1] was 297 nM and the Ki [2] was 98.3 nM.
In the case of `CC(C(=O)NOCc1ccccc1)c1ccc(NS(C)(=O)=O)c(F)c1` (stereo not shown) [4-21, N-Benzyloxy-2-[3-fluoro-4-(methylsulfonylamino)phenyl]propionamide], the melting point was 182 to 183 °C and the Ki [1] was 9420 nM.
`CC(NC(=S)NCc1ccc(C(C)(C)C)cc1)c1ccc(NS(C)(=O)=O)c(C(=O)O)c1` (stereo not shown) [15-5, N-(4-t-Butylbenzyl)-N′-{1-[3-carboxy-4-(methylsulfonylamino)phenyl]ethyl}thiourea] showed a melting point of 189 to 192 °C and a pKi [1] of 5.56.
In the case of `C[C@H](NC(=S)NCc1ccc(C(C)(C)C)cc1)c1ccc(NS(C)(=O)=O)cc1` [16-6, N-(4-t-Butylbenzyl)-N′-{(1S)-1-[4-(methylsulfonylamino)phenyl]ethyl}thiourea], the melting point was 101 °C and the pKi [1] was 5.44.
In the case of `C[C@H](C(=O)NC[C@@H](COC(=O)C(C)(C)C)Cc1ccccc1)c1ccc(NS(C)(=O)=O)c(F)c1` [6-6, N-[(2S)-2-Benzyl-3-(pivaloyloxy)propyl]-(2S)-2-[3-fluoro-4-(methylsulfonylamino)phenyl]propionamide], the Ki [1] was 20.3 nM and the Ki [2] was 10 nM.
In the case of “N-(4-t-Butylbenzyl)-N-{1-[4-(methylsulfonylamino)phenyl]ethyl}thiourea [15-1]”, the Ki [1] was 59.3 nM and the Ki [2] was 14.7 nM.
Molecule “N-{1-[3-Fluoro-4-(methylsulfonylamino)phenyl]ethyl}-3-(4-chlorophenyl)propenamide [24-6]” has a Ki [2] of 5650 nM.
In the case of `Cc1ccc(CCCNC(=O)[C@H](C)c2ccc(NS(C)(=O)=O)c(F)c2)cc1C` [4-16, N-[3-(3,4-Dimethylphenyl)propyl]-(2R)-2-[3-fluoro-4-(methylsulfonylamino)phenyl]propionamide], the Ki [1] was 944 nM and the Ki [2] was 204 nM.
In the case of `C[C@@H](NC(=S)NCc1ccc(C(C)(C)C)cc1)c1ccc(NS(C)(=O)=O)cc1` [16-5, N-(4-t-Butylbenzyl)-N′-{(1R)-1-[4-(methylsulfonylamino)phenyl]ethyl}thiourea], the Ki [1] was 40.8 nM and the Ki [2] was 4.52 nM.
`Cc1ccc(C[C@H](CNC(=S)N[C@H](C)c2ccc(NS(C)(=O)=O)cc2)COC(=O)C(C)(C)C)cc1C` [18-7, N-[(2R)-2-(3,4-Dimethylbenzyl)-3-(pivaloyloxy)propyl]-N′-{(1R)-1-[4-(methylsulfonylamino)phenyl]ethyl}thiourea] showed a pKi [1] of 7.82 and a Ki [2] of 7.14 nM.
`C[C@@H](C(=O)NCc1ccc(C(C)(C)C)cc1)c1ccc(NS(C)(=O)=O)c(F)c1` [3-6, N-(4-tert-Butylbenzyl)-(2R)-2-[3-fluoro-4-(methylsulfonylamino)phenyl]propionamide] showed a pKi [1] of 6.34 and a Ki [2] of 102 nM.
For `Cc1ccc(CCCNC(=O)[C@@H](C)c2ccc(NS(C)(=O)=O)c(F)c2)cc1C` [4-17, N-[3-(3,4-Dimethylphenyl)propyl]-(2S)-2-[3-fluoro-4-(methylsulfonylamino)phenyl]propionamide], the pKi [1] was 6.63 and the Ki [2] was 33.7 nM.
For `C[C@@H](NC(=S)N[C@H](COC(=O)C(C)(C)C)Cc1ccccc1)c1ccc(NS(C)(=O)=O)cc1` [19-14, N-[(2S)-3-phenyl-1-pivaloyloxy-2-propyl]-N′-[(R)-α-methyl-4-(methylsulfonylamino)benzy]thiourea], the pKi [1] was 6.57 and the Ki [2] was 290 nM.
In the case of `CC(C(=O)NCc1ccc(C(C)(C)C)cc1)c1ccc(NS(C)(=O)=O)c(C(=O)NCc2ccccc2)c1` (stereo not shown) [1-60, N-(4-tert-Butylbenzyl)-2-[3-(benzylamino)carbonyl-4-(methylsulfonylamino)phenyl]propionamide], the melting point was 79 to 81 °C and the Ki [1] was 3710 nM.
In the case of `CC(C)(C)c1ccc(CNC(=S)NC(C)(C)c2ccc(NS(C)(=O)=O)cc2)cc1` [21-7, N-(4-t-Butylbenzyl)-N′-{1-methyl-1-[4-(methylsulfonylamino)phenyl]ethyl}thiourea], the melting point was 161 to 164 °C and the Ki [2] was 1830 nM.
`COc1ccc(CNC(=O)C(C)c2ccc(NS(C)(=O)=O)c(F)c2)cc1` (stereo not shown) [4-9, N-(4-Methoxybenzyl)-2-[3-fluoro-4-(methylsulfonylamino)phenyl]propionamide] showed a melting point of 138 °C and a Ki [2] of 1350 nM.
`C[C@H](NC(=S)NCc1ccc(C(C)(C)C)cc1)c1ccc(NS(C)(=O)=O)c(F)c1` [17-8, (S)—N-(4-t-Butylbenzyl)-N′-{1-[3-fluoro-4-(methylsulfonylamino)phenyl]ethyl}thiourea] showed a pKi [1] of 5.59 and a Ki [2] of 4310 nM.
In the case of `CC(C(=O)NCc1ccc(C(C)(C)C)cc1)c1ccc(NS(C)(=O)=O)c(C(=O)OC(C)(C)C)c1` (stereo not shown) [1-57, N-(4-tert-Butylbenzyl)-2-[3-(t-butoxycarbonyl)-4-(methylsulfonylamino)phenyl]propionamide], the melting point was 75 to 77 °C and the Ki [1] was 6730 nM.
Molecule `COc1cc(C(C)C(=O)NCC(COC(=O)C(C)(C)C)Cc2ccc(C(C)(C)C)cc2)ccc1NS(C)(=O)=O` (stereo not shown) [5-6, N-[2-(4-tert-Butylbenzyl)-3-pivaloyloxypropyl]-2-[3-methoxy-4-(methylsulfonylamino)phenyl]propionamide] has a melting point of 54 to 57 °C and a Ki [1] of 24 nM.
With `C[C@H](C(=O)N[C@H](COC(=O)C(C)(C)C)Cc1ccccc1)c1ccc(NS(C)(=O)=O)c(F)c1` [6-2, N—[(S)-1-Benzyl-2-(pivaloyloxy)ethyl]-(S)-2-[3-fluoro-4-(methylsulfonylamino)phenyl]propionamide] the melting point was 125 to 126 °C.
`CC(C(=O)NC(c1ccccc1)c1ccccc1)c1ccc(NS(C)(=O)=O)c(F)c1` (stereo not shown) [4-22, N-Benzhydryl-2-[3-fluoro-4-(methylsulfonylamino)phenyl]propionamide] gave a melting point of 160 to 161 °C and a Ki [1] of 5860 nM.
Molecule `C[C@H](C(=O)NCc1ccc(C(C)(C)C)cc1)c1ccc(NS(C)(=O)=O)c(F)c1` [3-5, N-(4-tert-Butylbenzyl)-(2S)-2-[3-fluoro-4-(methylsulfonylamino)phenyl]propionamide] has a pKi [1] of 7.36 and a Ki [2] of 6.87 nM.
With `Oc1cc2c(cc1O)CN(C(=S)NCCc1ccc(Cl)cc1)CCC2` [capsazepine, reference compound] the Ki [1] was 1300 nM and the Ki [2] was 520 nM.
In the case of `C[C@@H](NC(=S)NCc1ccc(C(C)(C)C)cc1)c1ccc(NS(C)(=O)=O)c(F)c1` [17-7, (R)—N-(4-t-Butylbenzyl)-N′-{1-[3-fluoro-4-(methylsulfonylamino)phenyl]ethyl}thiourea], the pKi [1] was 7.48 and the Ki [2] was 39.4 nM.
Molecule `C[C@@H](C(=O)NC[C@@H](COC(=O)C(C)(C)C)Cc1ccccc1)c1ccc(NS(C)(=O)=O)c(F)c1` [6-7, N-[(2S)-2-Benzyl-3-(pivaloyloxy)propyl]-(2R)-2-[3-fluoro-4-(methylsulfonylamino)phenyl]propionamide] has a Ki [1] of 372 nM and a Ki [2] of 205 nM.
`Cc1ccc(CC(CNC(=S)N[C@H](C)c2ccc(NS(C)(=O)=O)cc2)COC(=O)C(C)(C)C)cc1C` (stereo partly drawn) [18-6, N-[2-(3,4-Dimethylbenzyl)-3-(pivaloyloxy)propyl]-N′-{(1R)-1-[4-(methylsulfonylamino)phenyl]ethyl}thiourea] showed a pKi [1] of 8.21 and a Ki [2] of 6.86 nM.
`Cc1ccc(CCC(=O)NC(C)c2ccc(NS(C)(=O)=O)c(F)c2)cc1C` (stereo not shown) [24-4, N-{1-[3-Fluoro-4-(methylsulfonylamino)phenyl]ethyl}-3-(3,4-dimethylphenyl)propanamide] showed a melting point of 176 to 177 °C and a Ki [2] of 4130 nM.
